Results from ChEMBL document CHEMBL5131502, “Improving the treatment of Parkinson's disease: Structure-based development of novel 5-HT2A receptor antagonists/inverse agonists” (Eur J Med Chem, 2022).

Assays:
Assay type in all cases: ADME, organism-based
[1] = Apparent volume of distribution during terminal state in Sprague-Dawley rat at 3 mg/kg, IG measured upto 24 hrs by LC-MS/MS analysis; conditions: in vivo, po, read-out: Vz/F
[2] = Half life in Sprague-Dawley rat at 3 mg/kg, IG measured upto 24 hrs by LC-MS/MS analysis; conditions: in vivo, po
[3] = Tmax in Sprague-Dawley rat at 3 mg/kg, IG measured upto 24 hrs by LC-MS/MS analysis; conditions: in vivo, po
[4] = Cmax in Sprague-Dawley rat at 3 mg/kg, IG measured upto 24 hrs by LC-MS/MS analysis; set-up: dose 3 mg/kg, time < 24 hrs, route ig; conditions: in vivo, po
[5] = AUClast in Sprague-Dawley rat at 3 mg/kg, IG measured upto 24 hrs by LC-MS/MS analysis; set-up: time < 24 hrs, dose 3 mg/kg, route ig; conditions: in vivo, po
[6] = MRTlast in Sprague-Dawley rat at 3 mg/kg, IG measured upto 24 hrs by LC-MS/MS analysis; conditions: in vivo, po

Vd/F [1]: 0.155 L/kg | half-life [2]: 1.28 h | Tmax [3]: 0.5 h | Cmax [4]: 43.3 nM | AUC(0-t) at 24 h [5]: 0.0786 µM·h | MRT last at 24 h [6]: 1.82 h
Compound: CC(C)COc1ccc(CNC(=O)N(Cc2ccc(F)cc2)C2CCN(C)CC2)cc1.O=C(O)C(O)C(O)C(=O)O
